Source: patent US12257247B2 (Monte Rosa Therapeutics AG, priority 2023, dated 2025)
Read-outs that look alike come from different tables or passages of the source.

Biological target: T1, VAV1 (Homo sapiens, UniProt P15498+Q96SW2)
T1 construct: A heterozygous VAV1 C-terminal HiBiT knock-in pool was generated at Monte Rosa Therapeutics from a clonal Jurkat cell; endogenous in cells; host or cells: Jurkat clone stably expressing LgBiT, homozygous GSPT1-G575N; heterozygous VAV1-HiBiT knock-in pool
Assay: VAV1 degradation activity, VAV1-HiBiT knock-in Jurkat luminescence assay (Example A, Table 1)
Assay type: cell-based
Conditions: VAV1-HiBiT knock-in Jurkat cells, luminescence read at 6 and 24 hours; for Dmax: Jurkat
Method in brief: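 Jurkat cells carrying VAV1-HiBiT knock-in, plated in RPMI/10% FBS with Endurazine live-cell substrate and pre-incubated ~16 h at 37° C. Compound dosed from 10 μM stock; luminescence read 6 and 24 h later. Response normalised to plate negative/positive controls, EC50 from 3-parameter logistic fit (hillslope 1).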

[1] = read-out: VAV1 DC50 (nM), class

| Structure (SMILES) | Dmax (read-out: VAV1 Dmax %) [%] | Dmax (read-out: VAV1 Dmax %, class) [%] | DC50 (read-out: VAV1 DC50) [nM] | DC50 [1] [nM] | VAV1 Dmax %, class |
| --- | --- | --- | --- | --- | --- |
| O=C1CCC(c2cccc(-c3ccc(-n4c(C(F)F)cccc4=O)cc3)c2Cl)C(=O)N1 (centres unmarked) [Compound 238, 3-(2-chloro-4′-(6-(difluoromethyl)-2-oxopyridin-1(2H)-yl)-[1,1′-biphenyl]-3-yl)piperidine-2,6-dione] | 98.7 | > 90 | 2.24 | ≤ 100 |  |
| O=C1CCC(c2cccc(-c3ccc(Cn4ccccc4=O)cc3)c2)C(=O)N1 (centres unmarked) [Compound 239, 3-(4′-((2-oxopyridin-1(2H)-yl)methyl)-[1,1′-biphenyl]-3-yl)piperidine-2,6-dione] | 63.4 | 60 to 90 | 341 | 100 to 1000 |  |
| Cc1c(-c2ccc(-n3ccccc3=O)cc2)cccc1C1CCC(=O)NC1=O (centres unmarked) [Compound 240, 3-[2-methyl-3-[4-(2-oxo-1-pyridyl)phenyl]phenyl]piperidine-2,6-dione] | 94.4 | > 90 | 77.1 | ≤ 100 |  |
| O=C1CCC(c2cccc(-c3ccc(C4(n5ccccc5=O)CC4)cc3)c2Cl)C(=O)N1 (centres unmarked) [Compound 241, 3-[2-chloro-3-[4-[1-(2-oxo-1-pyridyl)cyclopropyl]phenyl]phenyl]piperidine-2,6-dione] | 77 | 60 to 90 | 920 | 100 to 1000 |  |
| O=C1CCC(c2cccc(-c3ccc(-n4c(F)cccc4=O)cc3)c2Cl)C(=O)N1 (centres unmarked) [Compound 242, 3-(2-chloro-4′-(6-fluoro-2-oxopyridin-1(2H)-yl)-[1,1′-biphenyl]-3-yl)piperidine-2,6-dione] | 91.5 | > 90 | 68.4 | ≤ 100 |  |
| Cc1c(-c2ccc(Cn3ccccc3=O)cc2)cccc1C1CCC(=O)NC1=O (centres unmarked) [Compound 243, 3-[2-methyl-3-[4-[(2-oxo-1-pyridyl)methyl]phenyl]phenyl]piperidine-2,6-dione] | 56.8 | < 60 | 4220 | > 1000 |  |
| O=C1CCC(c2cccc(-c3ccc(N4C(=O)CCCC4C(F)(F)F)cc3)c2Cl)C(=O)N1 (centres unmarked) [Compound 244, 3-(2-chloro-4′-(2-oxo-6-(trifluoromethyl)piperidin-1-yl)-[1,1′-biphenyl]-3-yl)piperidine-2,6-dione] | 96.5 | > 90 | 8.36 | ≤ 100 |  |
| O=C1CCC(c2cccc(-c3ccc(-n4ccc(F)cc4=O)cc3)c2Cl)C(=O)N1 (centres unmarked) [Compound 245, 3-[2-chloro-3-[4-(4-fluoro-2-oxo-1-pyridyl)phenyl]phenyl]piperidine-2,6-dione] | 95.2 | > 90 | 17.5 | ≤ 100 |  |
| O=C1CCC(c2cccc(-c3ccc(-n4cc(F)ccc4=O)cc3)c2Cl)C(=O)N1 (centres unmarked) [Compound 246, 3-(2-chloro-4′-(5-fluoro-2-oxopyridin-1(2H)-yl)-[1,1′-biphenyl]-3-yl)piperidine-2,6-dione] | 94.3 | > 90 | 17.5 | ≤ 100 |  |
| CN1CCCN(c2ccc(-c3cccc(C4CCC(=O)NC4=O)c3Cl)cc2)C1=O (centres unmarked) [Compound 247] | 95.4 | > 90 | 5.38 | ≤ 100 |  |
| O=C1CCC(c2cccc(-c3ccc(NC(=O)N4CCCC4)cc3)c2Cl)C(=O)N1 (centres unmarked) [Compound 248, N-(2′-chloro-3′-(2,6-dioxopiperidin-3-yl)-[1,1′-biphenyl]-4-yl)pyrrolidine-1-carboxamide] | 84.4 | 60 to 90 | 26.3 | ≤ 100 |  |
| Cn1ccc(CCc2ccc(-c3cccc(C4CCC(=O)NC4=O)c3Cl)cn2)n1 (centres unmarked) [Compound 249, 3-(2-chloro-3-(6-(2-(1-methyl-1H-pyrazol-3-yl)ethyl)pyridin-3-yl)phenyl)piperidine-2,6-dione] | 48.9 | < 60 | 7400 | > 1000 |  |
| Cn1ccc(COc2ccc(-c3cccc(C4CCC(=O)NC4=O)c3Cl)cn2)n1 (centres unmarked) [Compound 251, 3-(2-chloro-3-(6-((1-methyl-1H-pyrazol-3-yl)methoxy)pyridin-3-yl)phenyl)piperidine-2,6-dione] | 73.8 | 60 to 90 | 354 | 100 to 1000 |  |
| O=C1CCC(c2cccc(-c3ccc(CN4CCc5ocnc5C4=O)cc3)c2Cl)C(=O)N1 (centres unmarked) [Compound 252] | 82.8 | 60 to 90 | 54.8 | ≤ 100 |  |
| O=C1CCC(c2cccc(-c3ccc(CN4C(=O)CCn5nccc54)cc3)c2Cl)C(=O)N1 (centres unmarked) [Compound 253] | 87.7 | 60 to 90 | 29.6 | ≤ 100 |  |
| CC1Oc2ccncc2N(Cc2ccc(-c3cccc(C4CCC(=O)NC4=O)c3Cl)cc2)C1=O (centres unmarked) [Compound 254] | 96.2 | > 90 | 11.2 | ≤ 100 |  |
| CN1CC(=O)N(Cc2ccc(-c3cccc(C4CCC(=O)NC4=O)c3Cl)cc2)c2cccnc21 (centres unmarked) [Compound 255] | 89.5 | 60 to 90 | 11 | ≤ 100 |  |
| CN1CC(=O)N(Cc2ccc(-c3cccc(C4CCC(=O)NC4=O)c3Cl)cc2)c2cnccc21 (centres unmarked) [Compound 256] | 75.8 | 60 to 90 | 213 | 100 to 1000 |  |
| CN1CC(=O)N(Cc2ccc(-c3cccc(C4CCC(=O)NC4=O)c3Cl)cc2)CC1(C)C (centres unmarked) [Compound 257] | 94.2 | > 90 | 9.66 | ≤ 100 |  |

| Structure (SMILES) | Dmax (read-out: VAV1 Dmax %) [%] | Dmax (read-out: VAV1 Dmax %, class) [%] | DC50 (read-out: VAV1 DC50) [nM] | DC50 [1] [nM] | VAV1 Dmax %, class |
| --- | --- | --- | --- | --- | --- |
| O=C1CCC(c2cccc(-c3ccc(CN4CC(C(F)(F)F)OCC4=O)cc3)c2Cl)C(=O)N1 (centres unmarked) [Compound 258] | 94.5 | > 90 | 12.6 | ≤ 100 |  |
| CN1CC(=O)N(Cc2ccc(-c3cccc(C4CCC(=O)NC4=O)c3Cl)cc2)CC12COC2 (centres unmarked) [Compound 259] | 90 | > 90 | 28.1 | ≤ 100 |  |
| O=C1CCC(c2cccc(-c3ccc(CN4CC5CCCN5CC4=O)cc3)c2Cl)C(=O)N1 (centres unmarked) [Compound 260] | 83.9 | 60 to 90 | 193 | 100 to 1000 |  |
| O=C1CCC(c2cccc(-c3ccc(CN4CCN5CCCC5C4=O)cc3)c2Cl)C(=O)N1 (centres unmarked) [Compound 261] | 84.8 | 60 to 90 | 101 | 100 to 1000 |  |
| O=C1CCC(c2cccc(-c3ccc(CN4C(=O)CCCC4C(F)(F)F)cc3)c2Cl)C(=O)N1 (centres unmarked) [Compound 262] | 90.2 | > 90 | 32.6 | ≤ 100 |  |
| CC1(C)COCC(=O)N1Cc1ccc(-c2cccc(C3CCC(=O)NC3=O)c2Cl)cc1 (centres unmarked) [Compound 263] | 87.5 | 60 to 90 | 29.3 | ≤ 100 |  |
| O=C1CCC(c2cccc(-c3ccc(CN4C(=O)COCC45CC5)cc3)c2Cl)C(=O)N1 (centres unmarked) [Compound 264] | 84.6 | 60 to 90 | 39.5 | ≤ 100 |  |
| C[C@H]1COCC(=O)N1Cc1ccc(-c2cccc(C3CCC(=O)NC3=O)c2Cl)cc1 (some centres unmarked) [Compound 265] | 88 | 60 to 90 | 32.5 | ≤ 100 |  |
| CC1CCC(F)(F)C(=O)N1Cc1ccc(-c2cccc(C3CCC(=O)NC3=O)c2Cl)cc1 (centres unmarked) [Compound 266] | 93.2 | > 90 | 14.1 | ≤ 100 |  |
| CC1CN(Cc2ccc(-c3cccc(C4CCC(=O)NC4=O)c3Cl)cc2)C(=O)C(C)O1 (centres unmarked) [Compound 267] | 96.4 | > 90 | 11.5 | ≤ 100 |  |
| CC1(C)CN(c2cccc(-c3ccc(CC4CCC(=O)NC4=O)cc3Cl)c2)C(=O)CO1 (centres unmarked) [Compound 268] | 94.5 |  | 12.8 | ≤ 100 | A (A represents a Dmax % >90%) |
| O=C1CCC(c2cccc(-c3ccc(CN4CC5(F)CC(C5)C4=O)cc3)c2Cl)C(=O)N1 (centres unmarked) [Compound 269] | 96.9 | > 90 | 6.83 | ≤ 100 |  |
| O=C1CCC(c2cccc(-c3cccc(CC4CCC(F)C(=O)N4)c3)c2Cl)C(=O)N1 (centres unmarked) [Compound 270] | 89.6 | 60 to 90 | 31.3 | ≤ 100 |  |
| COC1CCCC(=O)N1Cc1ccc(-c2cccc(C3CCC(=O)NC3=O)c2Cl)cc1 (centres unmarked) [Compound 271] | 83.8 | 60 to 90 | 50.9 | ≤ 100 |  |
| Cn1ccc2c1C(=O)N(Cc1ccc(-c3cccc(C4CCC(=O)NC4=O)c3Cl)cc1)CC2 (centres unmarked) [Compound 272] | 96.8 | > 90 | 13.6 | ≤ 100 |  |
| O=C1CCC(c2cccc(-c3ccc(CN4CCn5cncc5C4=O)cc3)c2Cl)C(=O)N1 (centres unmarked) [Compound 273] | 78 | 60 to 90 | 118 | 100 to 1000 |  |
| O=C1CCC(c2cccc(-c3ccc(CN4CCn5ccnc5C4=O)cc3)c2Cl)C(=O)N1 (centres unmarked) [Compound 274] | 69.5 | 60 to 90 | 269 | 100 to 1000 |  |
| O=C1CCC(c2cccc(-c3ccc(CN4CCn5nccc5C4=O)cc3)c2Cl)C(=O)N1 (centres unmarked) [Compound 275] | 87.6 | 60 to 90 | 37.2 | ≤ 100 |  |
| O=C1CCC(c2cccc(-c3ccc(CN4Cc5nccn5CC4=O)cc3)c2Cl)C(=O)N1 (centres unmarked) [Compound 276] | 88.6 | 60 to 90 | 47.6 | ≤ 100 |  |
